# Assay results from patent US11447533B2, “Antimicrobial and anticancer peptides and conjugates and compositions, methods, articles and kits relating thereto” (George Mason Research Foundation, Inc., priority 2018, dated 2022).
# Legend:
# [1] = Endotoxin binding: competitive displacement of BODIPY TR-Cadaverine from LPS; set-up: species or system Escherichia coli; settings: 5 μM peptide, 10 μM BC, 10 μg/mL LPS, low ionic-strength 10 mM Na-PO4
# Procedure: FIGS. 2A-2B are graphs showing endotoxin binding. The figures depict the competitive displacement of BC from LPS/LTA by the peptides. 5 μM of each peptide was incubated with 10 μM BC and 10 μg/mL LPS from E. coli (0111:B4) or LTA from S. aureus. Fluorescence intensity was measured at excitation=580 nm and emission=620 nm. 10 μM BC without endotoxin was used as 100% displacement while 10 μM BC with 10 μg/mL LPS/LTA without any peptide as 0% displacement and the % displacement of BC by each peptide was calculated accordingly. […] had been used as a positive control. The horizontal dotted line coincides with the % displacement of BC by ATRA1 on the y-axis.
# FIGS. 6A-6B are graphs showing endotoxin (LPS (FIG. 6A) and LTA (FIG. 6B)) binding. Competitive displacement of BC from LPS/LTA. In each case, 5 μM peptide was incubated with 10 μM BC and 10 μg/mL LPS from E. coli (0111:B4) or LTA from S. aureus. Fluorescence intensity was measured using excitation=580 nm and emission=620 nm. As a positive control 10 μM BC without endotoxin was used as a reference for 100% displacement while 10 μM BC with 10 μg/mL LPS/LTA without any peptide as a negative control and a reference for 0% displacement. These controls were used to calculate % BC displacement for each peptide.
# Endotoxin Binding. The binding of endotoxin (LPS/LTA) was evaluated using a fluorogenic conjugateBODIPY TR-Cadaverine (BC). BC binds endotoxin loses its fluorescence. The peptide competitively displaces BC from endotoxin and the fluorescence is reestablished. Competitive inhibition of endotoxin-BC binding was utilized due to presence of peptides already in complexion with endotoxin. 25 μL of 20 μM of peptides in 10 mM Na—PO4 buffer were incubated with 25 μL of LPS (40 μg/mL) or LTA (40 μg/mL) for 15 min and then added with 50 μL of BC (20 uM). Peptides bind to LPS or LTA and competitively prevents BC bind to the endotoxin. BC loses its fluorescence on binding to endotoxin. The fluorescence intensity of the unbound BC was measured at excitation=580 nm and emission=620 nm.
# BC contains two functional moieties: BODIPY (boron-dipyrromethene) and cadaverine connected via a carboxamide. BODIPY is the fluorophore of BC and fluoresces in the free state in solution but loses fluorescence when bound to LPS/LTA. The competitive displacement of BC from LPS/LTA by AMPs and thus regeneration of the fluorescence has frequently been used to estimate the binding strength of AMPs with LPS/LTA. In the present studies, 5 μM of each peptide was used to displace BC from LPS/LTA. […] Such observation contradicts the initial assumption that substitution of Lys with arginine would result in increased efficiency of LPS binding. However, with sequential substitutions of Lys with arginine, starting with ATRA1-AR, peptide variants show increased LPS binding with each additional arginine substitution. In terms of LPS binding: ATRA1-AR<ATRA1-AR2<ATRA1-AR3. In ATRA1-R3, the lysine residues at 9th, 5th and 1st positions of ATRA1 were substituted with arginine. In ATRA1-R6 all of the lysine residues were replaced with arginine.
# [2] = tested on: E. coli ATCC 25922; assay: Antimicrobial efficacy (resazurin virtual colony count); format: cell-based, Escherichia coli; settings: pH 7.4
# Procedure: Antimicrobial Studies. The phosphate buffers used for antimicrobial assays were supplemented with non-nitrogenous energy source, 0.1% (w/v) glucose. To conduct antimicrobial assays, bacterial strains were first suspended in respective buffers. E. coli (ATCC 25922) and B. cereus (ATCC 11778) were grown in MHB II up to OD600 nm˜1 and stored as frozen stock in 20% glycerol at −80° C. Occasionally they were thawed and enumerated by serial dilution and spreading on MHB II agar plates. The concentrations of the frozen stocks of E. coli and B. cereus strains were 1.0-1.1*10^8 CFU/mL with OD600 nm˜0.8. In case of other bacterial strains, they were grown on the days of experiment up to OD600 nm˜1-1.5 and then adjusted to OD600 nm˜0.8. The growth media of the drug-resistant bacterial strains were supplemented with few of the respective antibiotics against which they are resistant. 200 μL of the 0.8 OD600 nm culture were added to 10 mL of the respective buffer to obtain a suspension which was used to incubate with equal volumes of peptide solution in the same buffer.
# Antimicrobial assays in different phosphate buffers and serum were conducted by adapting, with necessary modifications a fast high-throughput method based on Virtual Colony Count technique and later modified by incorporating the use of resazurin. At first serial dilution of a microbial strain in respective buffer was poured in the wells of 96 well polypropylene microplate and was then added with same volume of 2× MHB II supplemented with 80 μg/mL resazurin and incubated at 35° C. in a Gemini EM Microplate Reader (Molecular Devices) overnight with intermittent shaking. As the microbe grows it reduces non-fluorescent resazurin to fluorescent resorufin and the fluorescent intensity of each well were measured (excitation=570 nm, emission=590 nm) each 5 min for 15 hours. The time (t, min) to reach a certain fluorescence (RFU=20000 with respect to the starting fluorescence) was correlated with the initial bacterial concentration (in CFU/mL) in the particular well to obtain a calibration plot of the form: Log([Bacteria],CFU/mL)=b+m*t Equation 4: […]
# To obtain antimicrobial efficacy of the peptides, 50 μL of serially diluted peptide in a buffer was incubated with 50 μL microbial suspension in the same buffer for 3 hours in black polypropylene 96 well plate. After incubation the wells were added with 100 μL of 2× MHB II supplemented with 80 μg/mL resazurin and then incubated with continuous fluorescence reading for overnight time period as described earlier. The surviving microbial population (CFU/mL) in each well were calculated by first finding the time to reach a fluorescence of RFU=20000 and the correlation (4) for the specific microbial strain and buffer. % Survival represents the proportion of viable cells in peptide treated cells relative to cells treated with the respective buffer alone. Equation 5: […]
# Finally, the antimicrobial effectiveness of each peptide against the particular microbial strain in the specific buffer was determined by plotting % microbial survival as a function of the log of the concentration of the peptide and fitting the resulting data to a variable-slope sigmoidal regression model (equation 6). In this equation, log(EC50) represents the log of the concentration of the peptide required to kill half of the microbial population, where Smin and Smax correspond to the minimal and maximal microbial survival values (respectively), and H, Hill slope, is the parameter defining the steepness of the transition slopes of sigmoidal survival curves. % Microbial survival=Smin+(Smax−Smin)/(1+10^log(EC^50^)-log[peptide]*H) Equation 6: […]
# The antimicrobial efficacies of the peptides were first tested against the model Gram-negative bacteria, E. coli ATCC 25922, in different phosphate buffers having varied ionic strengths and compositions. The phosphate buffers that were used included 10 mM sodium phosphate (calculated ionic strength˜25 mM), PBS and DPBS. […]
# [3] = tested on: E. coli ML35p outer membrane; assay: NPN assay, outer membrane perturbation; format: cell-based, Escherichia coli; settings: DPBS; 25 μM peptide; 25 μM PMB = 100%
# Procedure: (§1) Interactions with Bacterial Membranes. Interaction of the peptides with bacterial membranes in different phosphate buffers were evaluated using E. coli ML35p, constructed in our laboratory. At first, competent cells of E. coli ML35 were produced by conventional competent cell preparation method, then transformed with pBR322 plasmid. Transformed colonies were selected after growing on Luria-agar containing 50 μg/mL ampicillin. A single transformed colony was grown in presence of ampicillin first in Luria broth and then in MHBII and stored as 20% glycerol stock at −80° C. This frozen stock, on the day of the experiment, was thawed and grown in MHBII containing ampicillin up to OD600 nm=0.8-0.9, washed with PBS and then suspended in the respective buffer up to the required OD600 nm for use.
# NPN Assay. The outer membrane perturbation of bacteria was evaluated by incubating E. coli ML35p with peptides in presence of NPN. 100 mM NPN in acetone was supplemented proportionately to a bacterial suspension of OD600 nm˜0.5 to achieve a final concentration of 20 μM of NPN and the mixture was equilibrated for 30 mins. Then, 90 μL of the bacterial suspension containing 20 μM NPN was added with 10 μL of 250 μM peptide (10×) solution in water and scanned for fluorescence intensity (excitation=350 nm, emission=420 nm). The % Perturbation was calculated by considering PMB to be causing 100% Perturbation and water (without peptide) as 0% Perturbation. Each peptide was tested in triplicate in each of the three phosphate buffers used.
# When peptides partition from the bulk aqueous environment to the cellular membranes, they may cause small defects in the membrane organization, a signature of adsorption of the peptides into the membranes. Such small defects are called membrane perturbations and can be evaluated by utilizing molecular probes. One such molecular probe is NPN, which is a hydrophobic molecule and is usually repelled to enter the hydrophobic interiors of the membrane by the polar headgroups of membrane-lipids. However, when small defects and gaps are caused during the adsorption of the peptides into the membranes, NPN can enter through those defects and in the hydrophobic environment of the membrane interior the molecule fluoresces, which can be measured for quantification of the extent of membrane-perturbation and peptide adsorption in the cellular membrane.
# [4] = tested on: E. coli ML35p outer membrane; assay: Outer membrane disruption (β-lactamase leakage, nitrocefin); format: cell-based, Escherichia coli; settings: DPBS
# Procedure: as §1
# Membrane Disruptions. The outer and the inner membrane disruptions by the peptides were evaluated by incubating bacterial suspension with peptides and then measuring the activity of enzymes leaked out of the cells. 100 μL of 10× concentration of peptide in water was incubated with 900 μL bacterial suspension (OD600 nm˜0.1) in respective buffer for 3 hours at room temperature with gentle rotation. Then the cells and debris were separated by centrifugation (10000 r.p.m. for 30 mins) and the supernatant was collected and tested for activity of enzymes that had leaked out of the bacterial cells. HCMAB was used as a positive control to cause 100% membrane disruption and water as a negative causing 0% disruption.
# The outer membrane disruption was tested by using the activity of beta-lactamase present in the periplasmic space of E. coli ML35p. Peptides when disrupt the outer membrane enough to cause beta-lactamase to come out, the degree of disruption can be measured by the virtue of the kinetics of the enzyme and using a chromogenic cephalosporin substrate called nitrocefin. β-lactamase mediated hydrolyzed product of nitrocefin has an absorbance αmax=486 nm. Supernatant collected from the incubation of peptide with bacteria was added with nitrocefin solution in DPBS and incubated at 35° C. and continuous absorbance readings. The slope of the linear section of the absorbance curve (absorbance vs time), was used as a measure of membrane disruption and the % Disruption was calculated as: Equation 7: […]
# Some of the ATRA1-variants were further tested for their ability to disrupt outer and inner membranes to form pores or disruptions sufficiently large so as to allow enzymes to leak out of their cellular compartments (cytoplasm or periplasmic space). For this purpose, two reporter molecules were used with one being the substrate of a cytoplasmic enzyme and the other was a substrate for an enzyme residing in the periplasmic space. One of the reporters, nitrocefin was the substrate for β-lactamase, which is present in the bacterial periplasm, whereas the other molecule, ONPG, was the substrate for β-galactosidase, which resides in the cytoplasm of E. coli ML35p strain. […] Similarly, β-galactosidase activity in the supernatants is evidence of inner membrane disruption and possible pore formation. When the aforesaid supernatants were tested for nitrocefin and ONPG hydrolysis, the corresponding absorbance increased with time (data not shown) indicating β-lactamase and β-galactosidase activity, respectively, and thus disruption of both the inner and outer membranes. The slopes of the increase in absorbance as a function of time provides the rate of enzyme activity. The enzyme activities in supernatants collected after incubation of bacteria with the quaternary ammonium surfactant, hexadecyltrimethylammonium bromide (HCMAB) was used as an internal reference for 100% membrane disruption. Enzyme activity for supernatants collected for cells incubated in the absence of peptide provided a reference for 0% membrane disruption. Bee venom peptide melittin was used as a positive control. […]
# [5] = PBS (high / physiologically relevant ionic strength)
Sequence,"LPS binding (BC displacement), in words [1]","antimicrobial efficacy, in words ([2]; DPBS (with Ca++ and Mg++))","antimicrobial efficacy, in words [2, 5]",membrane perturbation with respect to PMB [3],time to reach maximum signal for nitrocefin hydrolysis [4]
KRAKRFFKRLK (SEQ ID NO: 7) [ATRA1-AR2],ATRA1-AR<ATRA1-AR2<ATRA1-AR3,lose activity in DPBS,more potent than ATRA1-A,–,–
KRWKKFFKKWK (SEQ ID NO: 12) [ATRA1-W2],–,–,–,higher OM perturbation than ATRA1,–
KRWKKWFKKWK (SEQ ID NO: 13) [ATRA1-W3],–,–,–,higher OM perturbation than ATRA1,approximately 30 mins
RRAKRFFKRLK (SEQ ID NO: 8) [ATRA1-AR3],ATRA1-AR<ATRA1-AR2<ATRA1-AR3,lose activity in DPBS,greater effectiveness than both ATRA1-A and ATRA1,–,–
